Test results published in patent US20240024274A1, “O-ACETYLSERINE FOR THE USE THEREOF IN THE PREVENTION AND TREATMENT OF GLUCOSE INTOLERANCE AND THE ASSOCIATED DISEASES” (INSTITUT NATIONAL DE RECHERCHE POUR L'AGRICULTURE, …, priority 2020, published 2024).
Entries after “also recorded” stand apart in the source; their conditions may differ.

How the values were obtained:
Type in all cases: in vivo
[1] = system: C57BL/6JRj mice fed a high fat diet; assay: Oral glucose tolerance test (OGTT) in mice on high fat diet (HFD) treated with OAS
Method: Male C57BL/6JRj mice aged 7 weeks from Janvier Labs were fed a high fat diet (HFD, 45% fat and 20% sucrose) for 12 weeks. […] A first group of 10 mice fed this diet was treated with a daily dose of OAS of 200 mg/kg/d, at a frequency of 5 days per week during the 12 weeks of diet. The OAS used was the product sold as A6262_SIGMA by Sigma-Aldrich (CAS No. 66638-22-0). This group is the HFD+OAS group. […] This is the HFD group. […] An oral glucose tolerance test (OGTT) was performed on each of the three groups of mice. This test consists of monitoring the plasma glucose concentrations for 120 min, after the mice have received an oral glucose load. Thus, at T0 (fasting blood glucose), glucose (2 g/kg) is given orally to the animal. A drop of blood is taken from the tail every 30 minutes for 120 minutes so as to measure the blood glucose level with a strip glucose meter (Accu-Check Perfoma, available in pharmacies). Glucose tolerance is a reflection of the body's ability to regulate the return to a normal blood glucose level after a glucose load. The OGTT was performed at 5 weeks and 9 weeks after the start of the obesogenic diet. The results of this test show the installation of glucose intolerance as early as 5 weeks in the groups of mice on the HFD diet.

C57BL/6JRj mice [2] = assay: Oral glucose tolerance test (OGTT) in healthy mice, single dose of OAS with the glucose load; settings: single dose OAS 1000 mg/kg along with glucose 2.5 g/kg oral; vs control group
Method: Male C57BL/6JRj mice aged 7 weeks from Janvier Labs were fed with a conventional diet used in pet shops. A first group of 5 mice, not treated with OAS, served as a control group. A second group of 5 mice was treated with a single dose of OAS at 1000 mg/kg. The OAS used was the product sold under the name A6262 SIGMA by the company Sigma-Aldrich (CAS No. 66638-22-0). This group is the OAS treatment group. An oral glucose tolerance test (OGTT) was performed on each of the two groups of mice. This test consists of monitoring the plasma glucose concentrations for 120 min, after the mice have received an oral glucose load. Thus, at T0 (fasting blood glucose level), glucose (2.5 g/kg) is given orally to the animal. […] In the OGTT test, the OAS treatment group received a dose of 1000 mg/kg of OAS along with the oral glucose load. The control group received only the oral glucose load.

[3] = Epididymal adipose tissue weight of HFD mice after 12 weeks of diet and treatment; settings: after 12 weeks of HFD and OAS 200 mg/kg/d, ****p<0.0001
Method: Male C57BL/6JRj mice aged 7 weeks from Janvier Labs were fed a high fat diet (HFD, 45% fat and 20% sucrose) for 12 weeks. […] A first group of 10 mice fed this diet was treated with a daily dose of OAS of 200 mg/kg/d, at a frequency of 5 days per week during the 12 weeks of diet. The OAS used was the product sold as A6262_SIGMA by Sigma-Aldrich (CAS No. 66638-22-0). This group is the HFD+OAS group. […] This is the HFD group. […] These features are indicative of an establishment of obesity in the mice (FIG. 1).

C57BL/6JRj mice [4] = assay: Oral glucose tolerance test (OGTT) in healthy mice after 5-day OAS treatment; settings: OAS 1000 mg/kg daily for 5 days, vs control group; for area under the curve of the OGTT: glucose 2.5 g/kg oral
Method: Male C57BL/6JRj mice aged 7 weeks from Janvier Labs were fed with a conventional diet used in pet shops. A first group of 10 mice, not treated with OAS, served as a control group. A second group of 10 mice was treated with a daily dose of OAS at 1000 mg/kg for 5 days. The OAS used was the product sold under the name A6262_SIGMA by the company Sigma-Aldrich (CAS No. 66638-22-0). This group is the OAS treatment group. An oral glucose tolerance test (OGTT) was performed on each of the two groups of mice. This test consists of monitoring the plasma glucose concentrations for 120 min, after the mice have received an oral glucose load. Thus, at T0 (fasting blood glucose level), glucose (2.5 g/kg) is given orally to the animal. A drop of blood is taken from the tail every 15 to 30 minutes for 90 minutes to measure the blood glucose level with a strip glucose meter (Accu-Check Perfoma, available in pharmacies). The OGTT was performed on the fifth day of treatment 2 h after the OAS treatment group received a dose of 500 mg/kg. At the time of the OGTT, the mice of the treatment group also received 500 mg/kg of OAS along with the oral glucose load. The control group received only the oral glucose load.

With `CC(=O)OC[C@H](N)C(=O)O` [OAS, O-acetylserine] the “effect on glucose intolerance (OGTT)” value ([1]; HFD mice, OAS 200 mg/kg/d 5 days per week, after 5 weeks) was “no visible effect”, the “glucose intolerance (OGTT)” value ([1]; HFD mice, OAS 200 mg/kg/d 5 days per week, after 9 weeks) was “significantly decreases” and the “difference in area under the curve of the OGTT between control group and HFD+OAS group” value ([1]; after 5 weeks, ****p<0.0001) was “significant”. The “difference in area under the curve of the OGTT between HFD group and HFD+OAS group” value ([1]; after 9 weeks, *p<0.05) was “significant”, the “difference in plasma glucose concentration between control group and HFD+OAS group” value ([1]; after 9 weeks, from t=60 min after oral glucose load) was “no longer significant” and the “difference in plasma glucose concentration between HFD group and HFD+OAS group” value ([1]; after 9 weeks, t=30 min after oral glucose load, p<0.0001) was “significant”. For the same molecule, the “area under the curve of the OGTT” value (C57BL/6JRj mice [2]) was “lower area under the curve than the control group; also recorded: significant”, the “blood glucose levels at 15 min after the oral glucose load” value (C57BL/6JRj mice [2]) was “significantly lower; also recorded: significantly decreases” and the “difference in epididymal adipose tissue weight between control group and HFD+OAS group” value [3] was “statistically significant”. The “fasting blood glucose level” value (C57BL/6JRj mice [4]; conventional diet) was “tended to be lower; also recorded: decreases”, the “blood glucose levels after the oral glucose load (hyperglycemia induced by an oral glucose load)” value (C57BL/6JRj mice [4]; 15 min, 30 min and 60 min after glucose 2.5 g/kg oral) was “significantly lower; also recorded: significantly decreases; also recorded: significant” and the “area under the curve of the OGTT” value (C57BL/6JRj mice [4]) was “significant”. For the same molecule, the “area under the curve of the OGTT” value (C57BL/6JRj mice [4]; listed as O-acetylserine) was “lower than that of the control group”.
